Measurements reported in ChEMBL document CHEMBL3352254, “Inhibitors of HGFA, Matriptase, and Hepsin Serine Proteases: A Nonkinase Strategy to Block Cell Signaling in Cancer” (ACS Med Chem Lett, 2014).
Residues, ends and D or L forms follow the SMILES beside them.

Assays:
[1] = biological target: T1, Hepatocyte growth factor activator serine protease (Homo sapiens) (UniProt Q04756); assay: Inhibition of recombinant HGFA (unknown origin)-mediated proteolytic activation of pro-HGF after 1 hr by immunoblotting
T1 sequence (whole entry): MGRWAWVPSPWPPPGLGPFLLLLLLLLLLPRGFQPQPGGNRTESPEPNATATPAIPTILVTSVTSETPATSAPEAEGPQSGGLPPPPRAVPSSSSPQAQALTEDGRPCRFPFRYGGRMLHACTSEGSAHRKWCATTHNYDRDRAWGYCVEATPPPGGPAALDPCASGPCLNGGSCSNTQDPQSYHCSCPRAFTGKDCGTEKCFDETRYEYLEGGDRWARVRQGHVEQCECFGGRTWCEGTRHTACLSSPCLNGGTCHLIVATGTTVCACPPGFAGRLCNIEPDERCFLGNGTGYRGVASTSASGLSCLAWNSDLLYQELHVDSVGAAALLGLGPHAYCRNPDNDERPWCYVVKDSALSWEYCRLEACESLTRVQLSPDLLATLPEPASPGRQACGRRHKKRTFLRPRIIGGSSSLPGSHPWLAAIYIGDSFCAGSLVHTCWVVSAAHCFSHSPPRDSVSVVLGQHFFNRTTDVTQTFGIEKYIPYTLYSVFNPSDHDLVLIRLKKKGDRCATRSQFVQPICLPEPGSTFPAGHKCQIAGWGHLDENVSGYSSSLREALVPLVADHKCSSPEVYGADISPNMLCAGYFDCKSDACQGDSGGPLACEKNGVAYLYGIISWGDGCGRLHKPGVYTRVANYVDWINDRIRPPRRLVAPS

[2] = biological target: T1, Hepatocyte growth factor activator serine protease (Homo sapiens); assay: Inhibition of recombinant HGFA (unknown origin)-mediated proteolytic activation of pro-MSP after 1 hr by immunoblotting
[3] = biological target: T1, Hepatocyte growth factor activator serine protease (Homo sapiens); assay: (§1) Inhibition of HGFA in human MDA-MB-231 cells assessed as inhibition of c-MET phosphorylation after 15 mins by immunoblotting; format: cell-based
[4] = biological target: T2, Suppressor of tumorigenicity 14 protein (Homo sapiens, UniProt Q9Y5Y6); assay: Inhibition of matriptase (unknown origin) using Boc-QAR-AMC as substrate by fluorescence assay
T2 sequence (Q9Y5Y6 whole entry): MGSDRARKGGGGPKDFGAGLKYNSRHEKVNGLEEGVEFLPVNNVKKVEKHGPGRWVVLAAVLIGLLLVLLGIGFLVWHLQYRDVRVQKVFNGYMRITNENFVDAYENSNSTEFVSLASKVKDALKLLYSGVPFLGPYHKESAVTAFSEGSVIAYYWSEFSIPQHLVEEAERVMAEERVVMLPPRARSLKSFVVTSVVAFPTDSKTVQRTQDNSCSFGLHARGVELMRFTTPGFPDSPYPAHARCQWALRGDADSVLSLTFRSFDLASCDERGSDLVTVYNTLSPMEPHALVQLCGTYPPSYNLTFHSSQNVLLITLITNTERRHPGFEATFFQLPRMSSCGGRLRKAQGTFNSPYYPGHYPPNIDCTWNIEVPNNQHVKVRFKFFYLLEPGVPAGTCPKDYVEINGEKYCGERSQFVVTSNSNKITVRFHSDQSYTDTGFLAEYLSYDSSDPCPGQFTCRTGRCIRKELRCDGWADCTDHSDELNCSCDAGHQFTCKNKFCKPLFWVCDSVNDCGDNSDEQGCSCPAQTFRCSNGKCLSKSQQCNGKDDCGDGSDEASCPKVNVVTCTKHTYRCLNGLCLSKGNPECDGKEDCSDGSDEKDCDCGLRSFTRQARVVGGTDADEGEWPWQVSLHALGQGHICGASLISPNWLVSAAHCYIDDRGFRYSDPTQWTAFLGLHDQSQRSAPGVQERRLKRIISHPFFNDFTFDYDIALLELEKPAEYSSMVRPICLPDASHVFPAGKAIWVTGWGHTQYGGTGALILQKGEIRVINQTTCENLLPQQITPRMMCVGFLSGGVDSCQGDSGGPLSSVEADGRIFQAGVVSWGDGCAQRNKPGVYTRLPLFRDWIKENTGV

Homo sapiens [5] = species on record: Homo sapiens; assay: Ratio of Ki for matriptase (unknown origin) to Ki for recombinant hepsin (unknown origin)
Serine protease hepsin = Serine protease hepsin (Homo sapiens, UniProt P05981); assay: Inhibition of recombinant hepsin (unknown origin) using Boc-QAR-AMC as substrate by fluorescence assay
[6] = biological target: T3, Hepatocyte growth factor activator serine protease (Homo sapiens, UniProt Q04756); assay: as §1; format: cell-based
T3 sequence (Q04756 whole entry): T1 sequence (whole entry)

Homo sapiens [7] = species on record: Homo sapiens; assay: Ratio of Ki for matriptase (unknown origin) to Ki for recombinant HGFA (unknown origin)

Chain of Serine protease hepsin (P05981 1-162 limits assumed): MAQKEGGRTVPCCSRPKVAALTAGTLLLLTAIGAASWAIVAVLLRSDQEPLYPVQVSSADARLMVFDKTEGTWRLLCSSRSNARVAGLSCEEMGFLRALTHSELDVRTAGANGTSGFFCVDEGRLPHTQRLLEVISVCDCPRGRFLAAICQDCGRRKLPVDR
Chain of Serine protease hepsin (P05981 163-417 limits assumed): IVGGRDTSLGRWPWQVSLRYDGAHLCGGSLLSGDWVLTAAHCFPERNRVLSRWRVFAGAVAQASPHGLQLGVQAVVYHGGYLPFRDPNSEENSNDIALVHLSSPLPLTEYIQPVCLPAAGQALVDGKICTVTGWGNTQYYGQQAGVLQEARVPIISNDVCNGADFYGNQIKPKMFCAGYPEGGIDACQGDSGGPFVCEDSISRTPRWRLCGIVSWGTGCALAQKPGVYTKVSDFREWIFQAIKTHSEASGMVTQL

SMILES	inhibition [1]	inhibition [2]	Ki [4] [nM]	EC50 [6] [nM]	also measured
CC(=O)N[C@@H](CCCCN)C(=O)N[C@@H](CCCNC(=N)N)C(=O)N[C@@H](CC(C)C)C(=O)N[C@@H](CCCNC(=N)N)C(=O)c1nccs1	Dose-dependent effect	Dose-dependent effect			inhibition [3]: Dose-dependent effect
CC(=O)N[C@@H](CO)C(=O)N[C@@H](CCCNC(=N)N)C(=O)N[C@@H](CC(C)C)C(=O)N[C@@H](CCCNC(=N)N)C(=O)c1nccs1		Dose-dependent effect			
CC(=O)N[C@@H](Cc1c[nH]c2ccccc12)C(=O)N[C@@H](CCCNC(=N)N)C(=O)N[C@@H](CC(C)C)C(=O)N[C@@H](CCCNC(=N)N)C(=O)c1nccs1	Dose-dependent effect	Dose-dependent effect			
CC(=O)N[C@@H](CCCCN)C(=O)N[C@@H](CCC(N)=O)C(=O)N[C@@H](CC(C)C)C(=O)N[C@@H](CCCNC(=N)N)C(=O)c1nccs1	Dose-dependent effect	Dose-dependent effect	0.92		Ratio Ki (Homo sapiens [5]): 200; Ki (Serine protease hepsin): 0.22 nM
N=C(N)c1ccc2cc(OC(=O)c3ccc(N=C(N)N)cc3)ccc2c1 [NAFAMOSTAT]				490	
CC(C)C[C@H](NC(=O)[C@H](CCC(N)=O)NC(=O)[C@@H](N)CCCCN)C(=O)N[C@@H](CCCNC(=N)N)C(=O)O (H-KQLR-OH)				3100	
CC(=O)N[C@@H](CCCCN)C(=O)N[C@@H](Cc1cnc[nH]1)C(=O)N[C@@H](CC(C)C)C(=O)N[C@@H](CCCNC(=N)N)C(=O)c1nccs1			22		
CC(=O)N[C@@H](Cc1c[nH]c2ccccc12)C(=O)N[C@@H](CCC(N)=O)C(=O)N[C@@H](CC(C)C)C(=O)N[C@@H](CCCNC(=N)N)C(=O)c1nccs1			32		
CC(=O)N[C@@H](CC(C)C)C(=O)N[C@@H](CC(C)C)C(=O)N[C@H](C=O)CCCNC(=N)N					Ratio Ki (Homo sapiens [7]): 3; Ratio Ki (Homo sapiens [5]): 3
CC(C)C[C@H](NC(=O)[C@H](CCCNC(=N)N)NC(=O)[C@@H](N)CCCCN)C(=O)N[C@@H](CCCNC(=N)N)C(=O)O (H-KRLR-OH)				180	
